Data from patent US20250145606A1 (Arcus Biosciences, Inc., priority 2023, published 2025).

Assays:
Conditions in all cases: biochemical
[1] = biological target: c-Kit (Homo sapiens (Human), UniProt P10721); assay: Inhibition of c-Kit kinase activity (HTRF KinEASE-TK); type: biochemical
Method in brief: (§1)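 Human kinases were preincubated 1 h at rt with a 22-point 1:2 compound titration, then run 120 min at rt with biotinylated TK peptide and ATP (2× mix: c-Kit 16 μM, PDGFRα 1 μM, PDGFRβ 40 μM, CSF1R 20 μM). Phosphopeptide was read by HTRF TR-FRET (665/620 nm), and IC50s came from 4-parameter fits.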

[2] = biological target: PDGFRα (Homo sapiens (Human), UniProt P16234); assay: Inhibition of PDGFRα kinase activity (HTRF KinEASE-TK)
PDGFRα, sequence (P16234 24-1089): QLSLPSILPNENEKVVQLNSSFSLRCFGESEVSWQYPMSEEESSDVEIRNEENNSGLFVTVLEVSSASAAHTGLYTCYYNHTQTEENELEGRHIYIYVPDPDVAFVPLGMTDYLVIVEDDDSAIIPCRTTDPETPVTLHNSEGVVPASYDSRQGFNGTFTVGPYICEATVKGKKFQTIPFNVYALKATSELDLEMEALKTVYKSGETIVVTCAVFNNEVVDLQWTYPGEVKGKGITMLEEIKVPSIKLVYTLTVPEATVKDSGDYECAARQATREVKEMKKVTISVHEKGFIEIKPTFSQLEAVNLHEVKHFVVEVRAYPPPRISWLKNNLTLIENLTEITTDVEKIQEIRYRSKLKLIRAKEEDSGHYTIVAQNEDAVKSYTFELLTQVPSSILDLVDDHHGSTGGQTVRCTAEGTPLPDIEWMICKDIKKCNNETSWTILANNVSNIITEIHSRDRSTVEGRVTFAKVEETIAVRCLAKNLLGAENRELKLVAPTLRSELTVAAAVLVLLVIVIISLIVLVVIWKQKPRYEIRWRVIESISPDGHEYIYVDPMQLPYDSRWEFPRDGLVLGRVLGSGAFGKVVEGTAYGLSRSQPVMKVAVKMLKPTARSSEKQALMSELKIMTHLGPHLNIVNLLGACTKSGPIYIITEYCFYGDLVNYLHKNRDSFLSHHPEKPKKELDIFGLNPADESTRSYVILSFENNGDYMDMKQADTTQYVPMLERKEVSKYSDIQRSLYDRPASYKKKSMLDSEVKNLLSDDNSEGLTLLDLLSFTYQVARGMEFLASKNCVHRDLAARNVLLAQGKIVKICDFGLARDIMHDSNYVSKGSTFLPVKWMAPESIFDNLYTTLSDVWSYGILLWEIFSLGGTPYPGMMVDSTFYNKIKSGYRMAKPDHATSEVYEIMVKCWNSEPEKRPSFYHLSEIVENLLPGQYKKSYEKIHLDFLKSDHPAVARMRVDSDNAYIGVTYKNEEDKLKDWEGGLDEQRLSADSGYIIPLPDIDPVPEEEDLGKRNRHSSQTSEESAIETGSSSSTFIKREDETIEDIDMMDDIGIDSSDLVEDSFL
Method in brief: as §1

[3] = biological target: PDGFRβ (Homo sapiens (Human), UniProt P09619); assay: Inhibition of PDGFRβ kinase activity (HTRF KinEASE-TK)
PDGFRβ, sequence (P09619 33-1106): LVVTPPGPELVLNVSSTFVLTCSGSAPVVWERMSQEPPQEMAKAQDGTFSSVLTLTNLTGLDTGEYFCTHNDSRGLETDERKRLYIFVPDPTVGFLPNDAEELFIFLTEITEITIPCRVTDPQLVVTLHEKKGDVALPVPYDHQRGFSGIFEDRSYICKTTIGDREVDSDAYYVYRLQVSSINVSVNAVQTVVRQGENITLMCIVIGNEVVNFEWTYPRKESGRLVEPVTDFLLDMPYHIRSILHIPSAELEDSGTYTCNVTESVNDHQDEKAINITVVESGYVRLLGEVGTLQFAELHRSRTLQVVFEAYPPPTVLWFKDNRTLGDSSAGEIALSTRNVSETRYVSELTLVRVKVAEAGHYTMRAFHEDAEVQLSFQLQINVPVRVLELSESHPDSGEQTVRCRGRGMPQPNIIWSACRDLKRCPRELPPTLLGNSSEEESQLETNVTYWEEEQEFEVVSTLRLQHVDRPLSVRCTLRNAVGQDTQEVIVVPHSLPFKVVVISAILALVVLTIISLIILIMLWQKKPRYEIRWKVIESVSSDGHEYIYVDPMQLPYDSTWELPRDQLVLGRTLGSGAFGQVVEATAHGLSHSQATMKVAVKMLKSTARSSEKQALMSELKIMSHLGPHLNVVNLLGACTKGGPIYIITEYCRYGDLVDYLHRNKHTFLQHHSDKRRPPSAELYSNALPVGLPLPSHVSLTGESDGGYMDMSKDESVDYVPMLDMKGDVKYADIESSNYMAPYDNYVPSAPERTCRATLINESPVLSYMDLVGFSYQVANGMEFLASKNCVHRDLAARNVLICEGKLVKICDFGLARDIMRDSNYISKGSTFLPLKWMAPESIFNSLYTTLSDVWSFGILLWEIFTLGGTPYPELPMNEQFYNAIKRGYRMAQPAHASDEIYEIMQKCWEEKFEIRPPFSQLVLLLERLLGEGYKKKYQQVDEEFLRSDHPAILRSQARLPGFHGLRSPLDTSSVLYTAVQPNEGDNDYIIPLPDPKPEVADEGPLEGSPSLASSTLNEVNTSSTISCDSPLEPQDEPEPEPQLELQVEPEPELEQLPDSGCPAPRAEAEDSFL
Method in brief: as §1

[4] = biological target: CSF1R (Homo sapiens (Human), UniProt P07333); assay: Inhibition of CSF1R kinase activity (HTRF KinEASE-TK)
CSF1R, sequence (P07333 20-972): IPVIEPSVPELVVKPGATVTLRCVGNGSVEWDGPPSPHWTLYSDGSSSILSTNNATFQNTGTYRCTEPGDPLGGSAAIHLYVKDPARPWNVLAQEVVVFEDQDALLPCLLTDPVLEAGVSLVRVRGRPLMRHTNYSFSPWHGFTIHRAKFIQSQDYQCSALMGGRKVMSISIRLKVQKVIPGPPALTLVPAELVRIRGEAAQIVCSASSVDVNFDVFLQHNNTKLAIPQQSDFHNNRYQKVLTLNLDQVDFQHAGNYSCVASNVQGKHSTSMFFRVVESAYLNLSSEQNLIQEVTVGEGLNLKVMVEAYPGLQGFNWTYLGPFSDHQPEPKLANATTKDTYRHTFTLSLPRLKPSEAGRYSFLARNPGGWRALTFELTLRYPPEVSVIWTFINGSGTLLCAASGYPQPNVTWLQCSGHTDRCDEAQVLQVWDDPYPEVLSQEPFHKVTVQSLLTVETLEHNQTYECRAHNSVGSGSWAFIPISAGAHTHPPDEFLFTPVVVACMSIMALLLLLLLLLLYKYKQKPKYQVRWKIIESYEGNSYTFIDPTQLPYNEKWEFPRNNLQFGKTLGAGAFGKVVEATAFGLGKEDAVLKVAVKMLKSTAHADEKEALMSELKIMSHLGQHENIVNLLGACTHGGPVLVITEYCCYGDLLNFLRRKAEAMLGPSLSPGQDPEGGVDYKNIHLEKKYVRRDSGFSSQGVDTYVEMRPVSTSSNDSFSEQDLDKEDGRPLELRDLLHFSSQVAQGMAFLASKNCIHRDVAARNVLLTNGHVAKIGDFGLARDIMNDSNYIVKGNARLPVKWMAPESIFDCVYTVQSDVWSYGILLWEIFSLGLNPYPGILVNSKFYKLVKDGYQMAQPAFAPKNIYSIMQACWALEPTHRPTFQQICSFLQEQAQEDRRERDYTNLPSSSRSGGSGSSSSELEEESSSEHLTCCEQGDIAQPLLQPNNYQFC
Method in brief: as §1

[5] = biological target: FLT3 (Homo sapiens (Human), UniProt P36888); assay: Inhibition of FLT3 kinase activity (HTRF KinEASE-TK); type: biochemical
FLT3, sequence (P36888 27-993): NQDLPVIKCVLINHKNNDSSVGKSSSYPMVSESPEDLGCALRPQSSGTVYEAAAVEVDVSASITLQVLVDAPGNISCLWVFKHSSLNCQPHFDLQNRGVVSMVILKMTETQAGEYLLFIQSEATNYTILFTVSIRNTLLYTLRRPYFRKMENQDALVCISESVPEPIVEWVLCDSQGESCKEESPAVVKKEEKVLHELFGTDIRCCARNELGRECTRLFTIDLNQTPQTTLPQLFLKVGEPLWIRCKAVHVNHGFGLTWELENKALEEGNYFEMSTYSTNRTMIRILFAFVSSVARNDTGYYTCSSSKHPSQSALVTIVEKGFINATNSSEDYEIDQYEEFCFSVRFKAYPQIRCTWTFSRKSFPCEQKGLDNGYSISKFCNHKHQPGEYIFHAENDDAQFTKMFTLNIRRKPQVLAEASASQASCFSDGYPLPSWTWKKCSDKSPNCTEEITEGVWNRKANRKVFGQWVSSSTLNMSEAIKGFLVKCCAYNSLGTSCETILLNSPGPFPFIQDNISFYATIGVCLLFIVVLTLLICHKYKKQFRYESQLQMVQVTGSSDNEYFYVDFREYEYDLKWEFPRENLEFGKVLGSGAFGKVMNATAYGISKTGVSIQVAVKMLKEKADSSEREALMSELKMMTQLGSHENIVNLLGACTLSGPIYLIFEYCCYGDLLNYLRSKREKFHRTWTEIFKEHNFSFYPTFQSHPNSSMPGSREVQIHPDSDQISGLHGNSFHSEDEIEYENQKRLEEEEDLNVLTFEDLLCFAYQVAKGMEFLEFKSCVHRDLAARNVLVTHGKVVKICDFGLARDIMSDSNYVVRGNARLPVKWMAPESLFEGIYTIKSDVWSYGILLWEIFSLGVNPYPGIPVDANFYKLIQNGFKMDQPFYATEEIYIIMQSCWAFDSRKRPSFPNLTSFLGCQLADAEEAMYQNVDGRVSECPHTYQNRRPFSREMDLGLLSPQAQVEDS
Method: Inhibition of c-Kit, PDGFRα, PDGFRβ, CSFIR and FLT3 Kinase Activity
Compounds were evaluated to determine the potency with which they inhibit the kinase activity of the following panel of tyrosine kinases: c-Kit (SignalChem, Product #: K06-11BG), PDGFRα (SignalChem, Product #: P12-18G), PDGFRβ (SignalChem, Product #: P13-11G), CSFIR (SignalChem, Product #: C74-11G) and FLT3 (Invitrogen, Product #: PR4666C). Activity was determined as a function of phosphorylated biotinylated TK peptide generated by the transfer of phosphate from ATP as measured by the use of the HTRF KinEASE-TK assay kit (Cisbio, Product #: 62TKOPEJ). Levels of phosphorylated biotinylated TK peptide (Part 61TKOBLC of KinEASE assay kit) are quantified by its capture by phosphor-TK-Antibody-Cryptate (Part of KinEASE assay kit) and XL665-labeled Streptavidin (Part 610SAXLG of KinEASE assay kit) followed by measurement of Time-Resolved Fluorescence Resonance Energy Transfer (TR-FRET) signal. On the day of the assay, compounds were solubilized in DMSO and dispensed into a 384-well white Opti-plate (PerkinElmer, catalog #6007290) to generate a 22 point 1:2 titration. Enzyme solution was prepared for each of the tyrosine kinases in 50 mM HEPES, pH 7.4, 5 mM MgCl2 for c-Kit or 10 mM MgCl2 for FLT3, CSFIR, PDGFRa and PDGFRβ, 2 mM MnCl2, 0.01% Brij-35 and 0.01% BSA. Working enzyme concentrations were prepared for c-Kit at 2 nM (2×), PDGFRa and PDGFRß at 10 nM (2×), CSFIR at 2 nM (2×) and FLT3 at 0.4 nM (2×). Five microliters of enzyme dilution of each tyrosine kinase were added to their respective 384-well white Opti-plate pre-dispensed with compound and allowed to incubate for 1 h at rt. Utilizing the same enzyme buffer recipe, 2x substrate mixes were prepared for each enzyme as follows: For c-Kit, 1.6 μM (2×) TK substrate and 16 μM (2×) ATP (Promega, catalog #V915). For PDGFRα, 3.2 μM TK substrate and 1 μM ATP. For PDGFRβ, 3.2 μM TK substrate and 40 μM ATP. For CSFIR, […] TK substrate and 20 μM ATP. For FLT3, 3.2 μM TK substrate and 100 μM ATP. Reactions were initiated by addition of 5 μL of the respective 2x substrate mix to each well of the plates containing the respective tyrosine kinase enzymes and were allowed to proceed for 120 minutes at rt, except for FLT3, the reaction time is 45 min. Following the reaction, 10 μL of detection mix consisting of 0.2 μM (2×) of Streptavidin-XL665 and 2 μM (2×) of TK-Antibody-Cryptate prepared in detection buffer (Part 62SDBRDF of KinEASE assay kit) was added and then allowed to incubate for 60 min. The TR-FRET signal was quantified by measuring the ratio of emission at 665 nm to 620 nm after excitation at 320 nm by reading on a PerkinElmer Envision multimode reader. Compound potencies (IC50 values) were determined using a standard 4-parameter non-linear regression fit.

c-Kit, sequence (P10721 26-976): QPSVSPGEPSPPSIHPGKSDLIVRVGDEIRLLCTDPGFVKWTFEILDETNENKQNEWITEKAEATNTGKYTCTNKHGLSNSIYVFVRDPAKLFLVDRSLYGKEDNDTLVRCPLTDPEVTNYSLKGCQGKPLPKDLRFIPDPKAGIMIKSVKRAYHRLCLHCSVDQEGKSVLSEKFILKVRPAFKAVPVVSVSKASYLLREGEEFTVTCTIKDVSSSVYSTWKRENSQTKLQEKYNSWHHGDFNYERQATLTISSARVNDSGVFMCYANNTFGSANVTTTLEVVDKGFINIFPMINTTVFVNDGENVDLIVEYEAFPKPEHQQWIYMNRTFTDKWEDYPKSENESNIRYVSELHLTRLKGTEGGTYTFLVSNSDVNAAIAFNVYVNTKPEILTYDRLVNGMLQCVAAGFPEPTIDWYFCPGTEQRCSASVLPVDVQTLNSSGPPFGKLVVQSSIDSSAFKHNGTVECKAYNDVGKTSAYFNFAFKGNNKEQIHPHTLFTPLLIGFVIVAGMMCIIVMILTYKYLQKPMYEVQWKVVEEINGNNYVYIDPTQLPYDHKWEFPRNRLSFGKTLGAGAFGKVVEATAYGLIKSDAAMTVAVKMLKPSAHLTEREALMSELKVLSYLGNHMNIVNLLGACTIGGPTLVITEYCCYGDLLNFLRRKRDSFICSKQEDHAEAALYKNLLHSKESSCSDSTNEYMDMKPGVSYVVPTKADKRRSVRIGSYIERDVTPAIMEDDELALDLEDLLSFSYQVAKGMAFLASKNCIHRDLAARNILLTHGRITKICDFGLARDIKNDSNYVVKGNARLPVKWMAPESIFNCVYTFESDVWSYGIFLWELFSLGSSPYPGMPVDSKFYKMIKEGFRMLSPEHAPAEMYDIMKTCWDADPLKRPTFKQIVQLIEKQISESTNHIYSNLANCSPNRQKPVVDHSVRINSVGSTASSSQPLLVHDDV

IC50 ([1]; HTRF KinEASE-TK) [nM]	IC50 ([2]; HTRF KinEASE-TK) [nM]	IC50 ([3]; HTRF KinEASE-TK) [nM]	IC50 ([4]; HTRF KinEASE-TK) [nM]	IC50 ([5]; HTRF KinEASE-TK) [nM]	SMILES	IC50 [1] [nM]	IC50 [2] [nM]	IC50 [3] [nM]	IC50 [4] [nM]	IC50 [5] [nM]
–	–	–	–	–	Cc1cc(F)c(C(=O)Nc2ccc(OC3CC3)cn2)cc1NC(=O)c1cnc(NC(=O)N2CCC2)s1 [Example 6, 2-(Azetidine-1-carbonylamino)-N-[5-[(5-cyclopropyloxypyridin-2-yl)carbamoyl]-4-fluoro-2-methylphenyl]-1,3-thiazole-5-carboxamide]	< 100	< 100	< 100	< 100	> 1000
< 100	> 1000	> 1000	> 1000	> 1000	Cc1ncc(C(=O)Nc2cc(C(=O)Nc3ccc(C(F)(F)F)cn3)c(F)cc2C)s1 [Example 14, N-[4-Fluoro-2-methyl-5-[[5-(trifluoromethyl)pyridin-2-yl]carbamoyl]phenyl]-2-methyl-1,3-thiazole-5-carboxamide]	–	–	–	–	–
< 100	> 1000	> 1000	> 1000	> 1000	Cc1ncc(C(=O)Nc2cc(C(=O)Nc3ncc(C4CC4)cn3)c(F)cc2C)s1 [Example 44, NV-[5-[(5-cyclopropylpyrimidin-2-yl)carbamoyl]-4-fluoro-2-methylphenyl]-2-methyl-1,3-thiazole-5-carboxamide]	–	–	–	–	–
< 100	> 1000	> 1000	> 1000	> 1000	Cc1ncc(C(=O)Nc2cc(C(=O)Nc3ccn(C4CCC4)n3)c(F)cc2C)s1 [Example 61, N-[5-[(1-Cyclobutylpyrazol-3-yl)carbamoyl]-4-fluoro-2-methylphenyl]-2-methyl-1,3-thiazole-5-carboxamide]	–	–	–	–	–
< 100	> 1000	> 1000	> 1000	> 1000	Cc1cc(F)c(C(=O)N[C@H]2CCOC2)cc1NC(=O)c1cnc(NC(=O)N2CCOCC2)s1 [Example 105, N-[5-[[4-fluoro-2-methyl-5-[[(3S)-oxolan-3-yl]carbamoyl]phenyl]carbamoyl]-1,3-thiazol-2-yl]morpholine-4-carboxamide]	–	–	–	–	–
< 100	> 1000	> 1000	> 1000	> 1000	Cc1cc(F)c(C(=O)Nc2ccc3c(n2)COC3)cc1NC(=O)c1cnc(N)s1 [Example 120, 2-Amino-N-[5-(5,7-dihydrofuro [3,4-b]pyridin-2-ylcarbamoyl)-4-fluoro-2-methylphenyl]-1,3-thiazole-5-carboxamide]	–	–	–	–	–
100 to 1000	100 to 1000	> 1000	> 1000	> 1000	Cc1cc(F)c(C(=O)N[C@H]2C[C@H]2F)cc1NC(=O)c1cnc(N)s1 [Example 136, 2-Amino-N-[4-fluoro-5-[[(1S,2R)-2-fluorocyclopropyl]carbamoyl]-2-methylphenyl]-1,3-thiazole-5-carboxamide]	–	–	–	–	–
< 100	100 to 1000	> 1000	> 1000	> 1000	Cc1cc(F)c(C(=O)N[C@@H]2C[C@@H]2F)cc1NC(=O)c1cnc(N)s1 [Example 137]	–	–	–	–	–
< 100	100 to 1000	> 1000	> 1000	> 1000	Cc1cc(F)c(C(=O)N[C@H]2C[C@@H]2F)cc1NC(=O)c1cnc(N)s1 [Example 138, 2-Amino-N-[4-fluoro-5-[[(1S,2S)-2-fluorocyclopropyl]carbamoyl]-2-methylphenyl]-1,3-thiazole-5-carboxamide]	–	–	–	–	–
< 100	> 1000	100 to 1000	100 to 1000	> 1000	Cc1cnc(NC(=O)c2cc(NC(=O)c3cnc(N)s3)c(C)cc2F)s1 [Example 160, 2-Amino-N-[4-fluoro-2-methyl-5-[(5-methyl-1,3-thiazol-2-yl)carbamoyl]phenyl]-1,3-thiazole-5-carboxamide]	–	–	–	–	–
< 100	100 to 1000	100 to 1000	100 to 1000	> 1000	Cc1cc(F)c(C(=O)Nc2cnn(C3CC3)c2)cc1NC(=O)c1cnc(N)s1 [Example 161, 2-Amino-N-[5-[(1-cyclopropylpyrazol-4-yl)carbamoyl]-4-fluoro-2-methylphenyl]-1,3-thiazole-5-carboxamide]	–	–	–	–	–
< 100	> 1000	> 1000	> 1000	> 1000	Cc1cc(F)c(C(=O)Nc2ccn(C)n2)cc1NC(=O)c1cnc(N)s1 [Example 163, 2-Amino-N-[4-fluoro-2-methyl-5-[(1-methylpyrazol-3-yl)carbamoyl]phenyl]-1,3-thiazole-5-carboxamide]	–	–	–	–	–
< 100	> 1000	100 to 1000	100 to 1000	> 1000	Cc1ncc(NC(=O)c2cc(NC(=O)c3cnc(N)s3)c(C)cc2F)s1 [Example 166, 2-Amino-N-[4-fluoro-2-methyl-5-[(2-methyl-1,3-thiazol-5-yl)carbamoyl]phenyl]-1,3-thiazole-5-carboxamide]	–	–	–	–	–
< 100	> 1000	> 1000	> 1000	> 1000	Cc1cc(F)c(C(=O)Nc2cnn(C)c2)cc1NC(=O)c1cnc(N)s1 [Example 167, 2-Amino-N-[4-fluoro-2-methyl-5-[(1-methylpyrazol-4-yl)carbamoyl]phenyl]-1,3-thiazole-5-carboxamide]	–	–	–	–	–
< 100	100 to 1000	100 to 1000	100 to 1000	> 1000	Cc1cc(F)c(C(=O)Nc2cnn(C(C)C)n2)cc1NC(=O)c1cnc(N)s1 [Example 171, 2-Amino-N-[4-fluoro-2-methyl-5-[(2-propan-2-yltriazol-4-yl)carbamoyl]phenyl]-1,3-thiazole-5-carboxamide]	–	–	–	–	–
< 100	> 1000	100 to 1000	> 1000	> 1000	COC(c1ccc(NC(=O)c2cc(NC(=O)c3cnc(N)s3)c(C)cc2F)nc1)C1CC1 (centres unmarked) [Example 197, 2-Amino-N-[5-[[5-[cyclopropyl(methoxy)methyl]pyridin-2-yl]carbamoyl]-4-fluoro-2-methylphenyl]-1,3-thiazole-5-carboxamide]	–	–	–	–	–
< 100	< 100	< 100	< 100	> 1000	Cc1cc(F)c(C(=O)Nc2ccc(OC(F)F)cc2)cc1NC(=O)c1cnc(N)s1 [Example 227, 2-Amino-N-[5-[[4-(difluoromethoxy)phenyl]carbamoyl]-4-fluoro-2-methylphenyl]-1,3-thiazole-5-carboxamide]	–	–	–	–	–
< 100	> 1000	100 to 1000	100 to 1000	> 1000	Nc1ncc(C(=O)Nc2cc(C(=O)Nc3ccc(OC4CC4)cn3)c(F)cc2Br)s1 [Example 236, 2-Amino-N-[2-bromo-5-[(5-cyclopropyloxypyridin-2-yl)carbamoyl]-4-fluorophenyl]-1,3-thiazole-5-carboxamide]	–	–	–	–	–
< 100	> 1000	100 to 1000	> 1000	> 1000	Cc1cc(F)c(C(=O)Nc2ccc(OC3CC3)cn2)cc1NC(=O)c1cnc(NC(=O)C(F)(F)F)s1 [Example 239, N-[5-[(5-cyclopropyloxypyridin-2-yl)carbamoyl]-4-fluoro-2-methylphenyl]-2-[(2,2,2-trifluoroacetyl)amino]-1,3-thiazole-5-carboxamide]	–	–	–	–	–
